According to patent US20090304692A1, “TRIAZINE COMPOUNDS AS PI3 KINASE AND MTOR INHIBITORS” (Wyeth, priority 2008, published 2009):
Values joined by “and” are separate entries in the source; they are usually repeats but may differ in a detail not shown here. Equal values may be shown once. Read-outs that look alike come from different tables or passages of the source.

What was measured:
[1] = test system: human breast MDA-MB-361 tumor cell line; assay: In vitro cell culture growth assay (MTS), MDA-MB-361; format: cell-based; details: Homo sapiens
PI3K-α = PI3K-α (Homo sapiens, UniProt P42336); assay: PI3K-alpha fluorescence polarization assay; details: read-out: IC50 PI3Kα
PI3K-α, sequence (P42336 whole entry, species assumed): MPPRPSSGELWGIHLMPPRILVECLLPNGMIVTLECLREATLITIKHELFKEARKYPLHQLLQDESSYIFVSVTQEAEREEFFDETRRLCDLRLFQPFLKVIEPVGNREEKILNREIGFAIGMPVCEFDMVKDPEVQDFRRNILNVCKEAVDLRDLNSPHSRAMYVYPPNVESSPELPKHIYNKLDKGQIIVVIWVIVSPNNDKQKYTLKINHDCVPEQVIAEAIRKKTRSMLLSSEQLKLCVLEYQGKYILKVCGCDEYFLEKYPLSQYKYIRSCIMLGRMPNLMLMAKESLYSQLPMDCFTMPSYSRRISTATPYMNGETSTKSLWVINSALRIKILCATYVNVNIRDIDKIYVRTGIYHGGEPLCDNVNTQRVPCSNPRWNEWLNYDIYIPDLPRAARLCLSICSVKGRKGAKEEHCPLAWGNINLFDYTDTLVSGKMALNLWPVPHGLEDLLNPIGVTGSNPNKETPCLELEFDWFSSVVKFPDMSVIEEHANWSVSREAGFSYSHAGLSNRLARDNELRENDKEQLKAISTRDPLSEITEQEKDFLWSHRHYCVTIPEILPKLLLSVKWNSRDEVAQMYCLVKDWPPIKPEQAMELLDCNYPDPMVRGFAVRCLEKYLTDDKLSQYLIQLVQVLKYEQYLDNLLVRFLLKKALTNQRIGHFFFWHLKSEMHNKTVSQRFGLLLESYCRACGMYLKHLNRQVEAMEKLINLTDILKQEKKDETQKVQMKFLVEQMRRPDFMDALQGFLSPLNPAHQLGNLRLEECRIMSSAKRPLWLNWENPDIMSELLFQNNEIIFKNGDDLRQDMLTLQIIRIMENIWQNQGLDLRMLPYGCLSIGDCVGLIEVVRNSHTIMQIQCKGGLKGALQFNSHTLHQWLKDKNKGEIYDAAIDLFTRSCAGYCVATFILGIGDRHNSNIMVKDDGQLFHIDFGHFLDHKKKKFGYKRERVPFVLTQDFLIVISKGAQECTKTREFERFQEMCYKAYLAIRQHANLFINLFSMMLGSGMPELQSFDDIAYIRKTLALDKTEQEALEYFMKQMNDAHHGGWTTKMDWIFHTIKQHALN
PI3K-α, sequence (P27986 whole entry partner, species assumed): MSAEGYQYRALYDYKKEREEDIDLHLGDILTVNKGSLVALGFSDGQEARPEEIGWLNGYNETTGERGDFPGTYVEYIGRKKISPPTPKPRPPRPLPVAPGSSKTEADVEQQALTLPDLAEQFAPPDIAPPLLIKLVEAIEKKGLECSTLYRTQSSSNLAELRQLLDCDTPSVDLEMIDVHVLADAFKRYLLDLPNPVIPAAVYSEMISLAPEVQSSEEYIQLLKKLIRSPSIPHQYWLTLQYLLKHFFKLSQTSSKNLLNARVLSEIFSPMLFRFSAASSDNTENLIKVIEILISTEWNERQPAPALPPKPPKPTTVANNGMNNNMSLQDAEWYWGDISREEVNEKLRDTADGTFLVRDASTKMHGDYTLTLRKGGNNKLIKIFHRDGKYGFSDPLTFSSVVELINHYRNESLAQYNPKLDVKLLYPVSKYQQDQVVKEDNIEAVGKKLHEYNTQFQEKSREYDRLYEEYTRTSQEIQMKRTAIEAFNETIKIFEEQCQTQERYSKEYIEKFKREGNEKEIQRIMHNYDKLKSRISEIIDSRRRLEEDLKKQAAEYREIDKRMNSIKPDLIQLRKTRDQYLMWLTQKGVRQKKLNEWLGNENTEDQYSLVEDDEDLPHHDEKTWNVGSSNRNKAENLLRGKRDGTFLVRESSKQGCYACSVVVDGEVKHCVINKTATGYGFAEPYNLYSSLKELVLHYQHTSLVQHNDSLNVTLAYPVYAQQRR

PI3K-γ = PI3K-γ (Homo sapiens, UniProt P48736); assay: PI3K-gamma fluorescence polarization assay; details: read-out: IC50 PI3Kγ
PI3K-γ, sequence (P48736 whole entry, species assumed): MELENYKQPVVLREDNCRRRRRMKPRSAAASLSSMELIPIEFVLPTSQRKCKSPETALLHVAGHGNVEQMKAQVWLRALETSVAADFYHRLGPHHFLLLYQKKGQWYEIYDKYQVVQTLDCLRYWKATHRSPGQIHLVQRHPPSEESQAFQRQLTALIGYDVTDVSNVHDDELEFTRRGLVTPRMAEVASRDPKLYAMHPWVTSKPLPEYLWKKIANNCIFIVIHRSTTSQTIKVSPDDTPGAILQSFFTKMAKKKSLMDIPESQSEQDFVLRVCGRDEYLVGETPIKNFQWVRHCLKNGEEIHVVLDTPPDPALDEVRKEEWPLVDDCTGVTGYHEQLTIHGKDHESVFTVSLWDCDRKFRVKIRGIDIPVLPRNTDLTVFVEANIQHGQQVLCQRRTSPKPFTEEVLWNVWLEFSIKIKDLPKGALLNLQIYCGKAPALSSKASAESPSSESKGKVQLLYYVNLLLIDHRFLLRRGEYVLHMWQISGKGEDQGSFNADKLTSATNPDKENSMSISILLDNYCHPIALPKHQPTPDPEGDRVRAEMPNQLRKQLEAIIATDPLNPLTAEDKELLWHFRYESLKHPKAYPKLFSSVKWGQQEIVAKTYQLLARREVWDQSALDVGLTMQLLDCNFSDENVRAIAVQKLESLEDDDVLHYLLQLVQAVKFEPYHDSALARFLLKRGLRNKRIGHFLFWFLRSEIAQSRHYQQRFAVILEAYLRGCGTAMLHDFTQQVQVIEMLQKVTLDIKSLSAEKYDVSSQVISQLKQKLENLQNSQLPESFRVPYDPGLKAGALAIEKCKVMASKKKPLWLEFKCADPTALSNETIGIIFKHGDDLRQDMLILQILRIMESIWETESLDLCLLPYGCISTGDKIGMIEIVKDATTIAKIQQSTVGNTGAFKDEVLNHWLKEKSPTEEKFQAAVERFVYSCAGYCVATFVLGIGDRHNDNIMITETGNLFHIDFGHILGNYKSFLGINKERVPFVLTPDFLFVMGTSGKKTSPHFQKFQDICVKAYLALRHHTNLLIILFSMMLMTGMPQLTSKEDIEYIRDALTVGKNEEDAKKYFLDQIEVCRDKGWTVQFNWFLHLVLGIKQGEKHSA

Human mTOR (FLAG-TOR) = Human mTOR (FLAG-TOR) (Homo sapiens, UniProt P42345); assay: mTOR kinase assay (DELFIA format, purified enzyme); format: biochemical
Human mTOR (FLAG-TOR), sequence (P42345 1360-2549 limits assumed): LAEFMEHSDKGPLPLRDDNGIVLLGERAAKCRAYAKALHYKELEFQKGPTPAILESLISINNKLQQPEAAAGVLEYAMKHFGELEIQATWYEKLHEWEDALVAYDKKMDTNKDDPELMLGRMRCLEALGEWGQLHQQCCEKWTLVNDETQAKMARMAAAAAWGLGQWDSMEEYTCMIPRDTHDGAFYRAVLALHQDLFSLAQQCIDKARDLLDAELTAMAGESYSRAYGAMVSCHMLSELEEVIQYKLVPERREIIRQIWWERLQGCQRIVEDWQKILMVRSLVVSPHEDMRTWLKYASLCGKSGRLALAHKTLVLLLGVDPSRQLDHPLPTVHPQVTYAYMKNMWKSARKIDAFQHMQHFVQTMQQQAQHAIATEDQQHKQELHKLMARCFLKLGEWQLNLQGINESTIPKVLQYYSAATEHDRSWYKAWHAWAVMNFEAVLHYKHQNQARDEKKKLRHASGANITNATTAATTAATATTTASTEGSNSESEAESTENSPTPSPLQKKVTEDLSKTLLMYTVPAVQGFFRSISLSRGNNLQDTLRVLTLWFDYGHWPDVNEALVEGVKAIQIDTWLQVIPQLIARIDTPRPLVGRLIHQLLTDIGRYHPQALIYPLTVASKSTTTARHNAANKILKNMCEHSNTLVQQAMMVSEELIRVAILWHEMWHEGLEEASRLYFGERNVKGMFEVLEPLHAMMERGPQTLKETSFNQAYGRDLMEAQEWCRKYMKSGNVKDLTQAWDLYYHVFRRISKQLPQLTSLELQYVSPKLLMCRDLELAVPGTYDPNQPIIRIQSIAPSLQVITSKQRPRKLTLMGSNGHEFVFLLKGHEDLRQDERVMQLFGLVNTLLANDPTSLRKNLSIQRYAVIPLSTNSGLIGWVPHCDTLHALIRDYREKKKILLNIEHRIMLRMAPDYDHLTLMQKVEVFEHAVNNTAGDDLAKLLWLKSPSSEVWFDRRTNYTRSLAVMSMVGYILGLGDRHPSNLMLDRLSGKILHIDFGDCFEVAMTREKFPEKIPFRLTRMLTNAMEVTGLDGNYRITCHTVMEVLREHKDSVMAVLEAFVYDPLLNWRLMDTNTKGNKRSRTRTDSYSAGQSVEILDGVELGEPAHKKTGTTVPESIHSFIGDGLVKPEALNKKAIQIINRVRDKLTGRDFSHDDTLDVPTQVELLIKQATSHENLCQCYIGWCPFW

[2] = test system: human prostate PC3-mm2 tumor cell line; assay: In vitro cell culture growth assay (MTS), PC3-mm2; format: cell-based; details: Homo sapiens, PC3MM2, 72 h
[3] = MDA-MB-361, 72 h, MTS cell growth assay, three days after drug treatment, read-out: IC50 MDA-MB-361
[4] = MTS cell growth assay, three days after drug treatment, read-out: IC50 PC3-mm2
[5] = MTS cell growth assay, three days after drug treatment, PC3-mm2 cells, read-out: IC50 PC3-mm2
[6] = 72 h, MTS cell growth assay, three days after drug treatment, MDA-MB-361 cells, read-out: IC50 MDA-MB-361
[7] = MDA-MB-361, 72 h, MTS cell growth assay, three days after drug treatment, MDA-MB-361 cells, read-out: IC50 MDA-MB-361

## CC(C)(C)OC(=O)N1CC(CNc2nc(-c3ccc(NC(=O)Nc4ccncc4)cc3)nc(N3CCOCC3)n2)C1 [Example 104, 3-({4-Morpholin-4-yl-6-[4-(3-pyridin-4-yl-ureido)-phenyl]-[1,3,5]triazin-2-ylamino}-methyl)-azetidine-1-carboxylic acid tert-butyl ester]
[1]; [3]
  IC50: 0.412 µM
PI3K-α
  IC50: 0.019 µM
PI3K-γ
  IC50: 0.234 µM
Human mTOR (FLAG-TOR); read-out: IC50 mTOR
  IC50: 0.015 µM
[2]; [4]
  IC50: 0.684 µM

## O=C(Nc1ccncc1)Nc1ccc(-c2nc(N3CCOCC3)nc(N3CCC4(CC3)OCCO4)n2)cc1 [Example 130, 1-{4-[4-(1,4-dioxa-8-azaspiro[4.5]dec-8-yl)-6-morpholin-4-yl-1,3,5-triazin-2-yl]phenyl}-3-pyridin-4-ylurea]
[1]; [3]
  IC50: 0.191 µM
PI3K-α
  IC50: 0.014 µM
PI3K-α; listed as 705
  IC50: 0.0135 µM
PI3K-γ
  IC50: 0.132 µM
Human mTOR (FLAG-TOR); read-out: IC50 mTOR
  IC50: 0.008 µM and 0.0124 µM
[2]; [5]
  IC50: 0.416 µM
[2]; [4]
  IC50: 0.416 µM

## CC(=O)c1cccc(NC(=O)Nc2ccc(-c3nc(OC4CCOCC4)nc(N4CCOCC4)n3)cc2)c1 [Example 65, 1-(3-acetylphenyl)-3-{4-[4-morpholin-4-yl-6-(tetrahydro-2H-pyran-4-yloxy)-1,3,5-triazin-2-yl]phenyl}urea]
[1]; [3]
  IC50: 0.151 µM
PI3K-α
  IC50: 0.015 µM
PI3K-γ
  IC50: 0.083 µM
Human mTOR (FLAG-TOR); read-out: IC50 mTOR
  IC50: 0.00505 µM
[2]; [4]
  IC50: 0.267 µM

## CN(C)CCCNC(=O)c1ccc(NC(=O)Nc2ccc(-c3nc(-c4cccs4)nc(N4CCOCC4)n3)cc2)cc1 [Example 570, N-[3-(dimethylamino)propyl]-4-[({4-[4-morpholin-4-yl-6-(2-thienyl)-1,3,5-triazin-2-yl]phenyl}carbamoyl)amino]benzamide]
[1]; [6]
  IC50: 0.028 µM
PI3K-α
  IC50: 0.0055 µM
PI3K-γ
  IC50: 0.048 µM
Human mTOR (FLAG-TOR); read-out: IC50 mTOR
  IC50: 0.013 µM
[2]; [5]
  IC50: 0.344 µM

## O=C(Nc1ccc(C(=O)O)cc1)Nc1ccc(-c2nc(N3CCCCC3)nc(N3CCOCC3)n2)cc1 [Example 593, 4-({[4-(4-morpholin-4-yl-6-piperidin-1-yl-1,3,5-triazin-2-yl)phenyl]carbamoyl}amino)benzoic acid]
[1]; [7]
  IC50: > 1 µM
PI3K-α
  IC50: 0.04 µM
PI3K-γ
  IC50: 0.143 µM
Human mTOR (FLAG-TOR); read-out: IC50 mTOR
  IC50: 0.012 µM
[2]; [5]
  IC50: > 1 µM

## Cc1ccc(-c2nc(-c3ccc(NC(=O)Nc4ccc(C(=O)N5CCN(C)CC5)cc4)cc3)nc(N3CCOCC3)n2)cc1 [Example 337, 1-{4-[4-(4-methylphenyl)-6-morpholin-4-yl-1,3,5-triazin-2-yl]phenyl}-3-{4-[(4-methylpiperazin-1-yl)carbonyl]phenyl}urea]
[1]; [7]
  IC50: 0.142 µM
[1]; [3]
  IC50: 0.142 µM
PI3K-α
  IC50: 0.007 µM
PI3K-γ
  IC50: 0.098 µM
PI3K-γ; listed as 533
  IC50: 0.0985 µM
Human mTOR (FLAG-TOR); read-out: IC50 mTOR
  IC50: 0.07 µM and 0.0705 µM
[2]; [5]
  IC50: 0.373 µM
[2]; [4]
  IC50: 0.373 µM

## CN1CCN(Cc2ccc(NC(=O)Nc3ccc(-c4nc(N5CCOCC5)nc(N5C6CCC5COC6)n4)cc3)cc2)CC1 [Example 250, 1-{4-[(4-methylpiperazin-1-yl)methyl]phenyl}-3-{4-[4-morpholin-4-yl-6-(3-oxa-8-azabicyclo[3.2.1]oct-8-yl)-1,3,5-triazin-2-yl]phenyl}urea]
[1]; [7]
  IC50: 0.014 µM
[1]; [3]
  IC50: 0.014 µM
PI3K-α
  IC50: 0.021 µM
PI3K-γ
  IC50: 0.19 µM
PI3K-γ; listed as 727
  IC50: 0.19 µM
Human mTOR (FLAG-TOR); IC50 mTOR
  IC50: 0.0009 µM and 0.000805 µM
[2]; [5]
  IC50: 0.031 µM
[2]; [4]
  IC50: 0.031 µM

## O=CCCc1nc(-c2ccc(NC(=O)Nc3ccncc3)cc2)nc(N2CCOCC2)n1 [Example 280, 1-{4-[4-morpholin-4-yl-6-(3-oxopropyl)-1,3,5-triazin-2-yl]phenyl}-3-pyridin-4-ylurea]
[1]; [3]
  IC50: 0.176 µM
PI3K-α
  IC50: 0.005 µM
PI3K-α; listed as 737
  IC50: 0.007 µM
PI3K-γ
  IC50: 0.029 µM
PI3K-γ; listed as 737
  IC50: 0.03 µM
Human mTOR (FLAG-TOR); read-out: IC50 mTOR
  IC50: 0.004 µM and 0.00445 µM
[2]; [5]
  IC50: 0.404 µM
[2]; [4]
  IC50: 0.404 µM

## O=C(Nc1ccncc1)Nc1ccc(-c2nc(N3CCOCC3)nc(N3C4CCC3COC4)n2)cc1 [Example 34, 1-{4-[4-morpholin-4-yl-6-(3-oxa-8-azabicyclo[3.2.1]oct-8-yl)-1,3,5-triazin-2-yl]phenyl}-3-pyridin-4-ylurea]
[1]; [3]
  IC50: 0.028 µM
PI3K-α
  IC50: 0.009 µM
PI3K-α; listed as 669
  IC50: 0.008 µM
PI3K-γ
  IC50: 0.095 µM
PI3K-γ; listed as 669
  IC50: 0.089 µM
Human mTOR (FLAG-TOR); read-out: IC50 mTOR
  IC50: 0.00049 µM and 0.00048 µM
[2]; [5]
  IC50: 0.041 µM
[2]; [4]
  IC50: 0.041 µM

## O=C(Nc1ccncc1)Nc1ccc(-c2nc(N3CCOCC3)nc(N3C4COCC3C(O)C4)n2)cc1 (stereo not drawn) [Example 273, 1-{4-[4-(6-hydroxy-3-oxa-8-azabicyclo[3.2.1]oct-8-yl)-6-morpholin-4-yl-1,3,5-triazin-2-yl]phenyl}-3-pyridin-4-ylurea]
[1]; [3]
  IC50: 0.032 µM
PI3K-α
  IC50: 0.004 µM
PI3K-γ
  IC50: 0.033 µM
Human mTOR (FLAG-TOR); read-out: IC50 mTOR
  IC50: 0.0008 µM
[2]; [4]
  IC50: 0.08 µM

## Cc1ccc(-c2nc(-c3ccc(NC(=O)Nc4ccc(C(=O)N(C)CCN(C)C)cc4)cc3)nc(N3CCOCC3)n2)cc1 [Example 338, N-[2-(dimethylamino)ethyl]-N-methyl-4-[({4-[4-(4-methylphenyl)-6-morpholin-4-yl-1,3,5-triazin-2-yl]phenyl}carbamoyl)amino]benzamide]
[1]; [3]
  IC50: 0.122 µM
PI3K-α
  IC50: 0.003 µM
PI3K-γ
  IC50: 0.077 µM
PI3K-γ; listed as 532
  IC50: 0.0765 µM
Human mTOR (FLAG-TOR); read-out: IC50 mTOR
  IC50: 0.022 µM and 0.019 µM
[2]; [5]
  IC50: 0.266 µM
[2]; [4]
  IC50: 0.266 µM

## CN(C)CCNC(=O)c1ccc(NC(=O)Nc2ccc(-c3nc(N4CCCC4)nc(N4CCOCC4)n3)cc2)cc1 [Example 608, N-[2-(dimethylamino)ethyl]-4-({[4-(4-morpholin-4-yl-6-pyrrolidin-1-yl-1,3,5-triazin-2-yl)phenyl]carbamoyl}amino)benzamide]
[1]; [6]
  IC50: 0.052 µM
PI3K-α
  IC50: 0.009 µM
PI3K-γ
  IC50: 0.107 µM
Human mTOR (FLAG-TOR); read-out: IC50 mTOR
  IC50: 0.005 µM
[2]; [5]
  IC50: 0.298 µM

## COC(=O)c1ccc(NC(=O)Nc2ccc(-c3nc(N4CCOCC4)nc(N4CCOCC4)n3)cc2)cc1 [Example 58, methyl 4-({[4-(4,6-dimorpholin-4-yl-1,3,5-triazin-2-yl)phenyl]carbamoyl}amino)benzoate]
[1]; MDA-MB-361, 72 h, read-out: IC50 MDA-MB-361, MTS cell growth assay, three days after drug treatment
  IC50: 0.115 µM
PI3K-α
  IC50: 0.013 µM
PI3K-γ
  IC50: 0.085 µM
Human mTOR (FLAG-TOR); read-out: IC50 mTOR
  IC50: 0.0025 µM
[2]; read-out: IC50 PC3-mm2, MTS cell growth assay, three days after drug treatment
  IC50: 0.045 µM

## O=C(Nc1ccc(C(=O)N2CCN(C3CCCC3)CC2)cc1)Nc1ccc(-c2nc(N3CCOCC3)nc(N3C4CCC3COC4)n2)cc1 [Example 755, 1-{4-[(4-cyclopentylpiperazin-1-yl)carbonyl]phenyl}-3-{4-[4-morpholin-4-yl-6-(3-oxa-8-azabicyclo[3.2.1]oct-8-yl)-1,3,5-triazin-2-yl]phenyl}urea]
[1]; [7]
  IC50: 0.003 µM
PI3K-α
  IC50: 0.002 µM
PI3K-γ
  IC50: 0.0265 µM
Human mTOR (FLAG-TOR); read-out: IC50 mTOR
  IC50: 0.00057 µM
[2]; [5]
  IC50: 0.013 µM

## O=C(Nc1ccc(C(=O)NC2CN3CCC2CC3)cc1)Nc1ccc(-c2nc(N3CCOCC3)nc(N3CCOCC3)n2)cc1 (stereo not drawn) [Example 73, 4-(3-(4-(4,6-dimorpholino-1,3,5-triazin-2-yl)phenyl)ureido)-N-(quinuclidin-3-yl)benzamide]
[1]; [3]
  IC50: 0.03 µM
PI3K-α
  IC50: 0.0003 µM
PI3K-γ
  IC50: 0.007 µM
Human mTOR (FLAG-TOR); read-out: IC50 mTOR
  IC50: 0.00077 µM
[2]; [4]
  IC50: 0.107 µM

## CN1CCN(C(=O)c2ccc(NC(=O)Nc3ccc(-c4nc(N5CCCC5)nc(N5CCOCC5)n4)cc3)cc2)CC1 [Example 607, 1-{4-[(4-methylpiperazin-1-yl)carbonyl]phenyl}-3-[4-(4-morpholin-4-yl-6-pyrrolidin-1-yl-1,3,5-triazin-2-yl)phenyl]urea]
[1]; [7]
  IC50: 0.024 µM
PI3K-α
  IC50: 0.012 µM
PI3K-γ
  IC50: 0.094 µM
Human mTOR (FLAG-TOR); read-out: IC50 mTOR
  IC50: 0.019 µM
[2]; [5]
  IC50: 0.213 µM

## O=C(Nc1ccc(C(=O)N2CCC(N3CCCC3)CC2)cc1)Nc1ccc(-c2nc(N3CCOCC3)nc(N3C4CCC3COC4)n2)cc1 [Example 761, 1-{4-[4-morpholin-4-yl-6-(3-oxa-8-azabicyclo[3.2.1]oct-8-yl)-1,3,5-triazin-2-yl]phenyl}-3-{4-[(4-pyrrolidin-1-ylpiperidin-1-yl)carbonyl]phenyl}urea]
[1]; [7]
  IC50: < 0.003 µM
PI3K-α
  IC50: 0.002 µM
PI3K-γ
  IC50: 0.019 µM
Human mTOR (FLAG-TOR); read-out: IC50 mTOR
  IC50: 0.00012 µM
[2]; [5]
  IC50: 0.004 µM

## CCCCc1nc(-c2ccc(NC(=O)Nc3ccc(C(=O)NCCN(C)C)cc3)cc2)nc(N2CCOCC2)n1 [Example 231, 4-({[4-(4-butyl-6-morpholin-4-yl-1,3,5-triazin-2-yl)phenyl]carbamoyl}amino)-N-[2-(dimethylamino)ethyl]benzamide]
[1]; [3]
  IC50: 0.02 µM
PI3K-α
  IC50: 0.004 µM
PI3K-γ
  IC50: 0.063 µM
Human mTOR (FLAG-TOR); read-out: IC50 mTOR
  IC50: 0.0025 µM
[2]; [4]
  IC50: 0.121 µM

## COCCOc1nc(-c2ccc(NC(=O)Nc3ccc(C(=O)OC)cc3)cc2)nc(N2CCOCC2)n1 [Example 211, methyl 4-[({4-[4-(2-methoxyethoxy)-6-morpholin-4-yl-1,3,5-triazin-2-yl]phenyl}carbamoyl)amino]benzoate]
[1]; [3]
  IC50: 0.254 µM
PI3K-α
  IC50: 0.08 µM
PI3K-α; listed as 715
  IC50: 0.0595 µM
PI3K-γ
  IC50: 0.108 µM
PI3K-γ; listed as 715
  IC50: 0.146 µM
Human mTOR (FLAG-TOR); read-out: IC50 mTOR
  IC50: 0.006 µM
[2]; [5]
  IC50: 0.389 µM
[2]; [4]
  IC50: 0.389 µM
